Test results as given in ChEMBL document CHEMBL2169878 (J Med Chem, 2012).
Activity calls are given as the source filed them. The calls are words filed in the database; no cut-off is given here.

Tests used:
[1] = molecular target: T1, Chloroquine resistance transporter (Plasmodium falciparum) (UniProt Q9N623); experiment: Inhibition of chloroquine-sensitive Plasmodium falciparum D10 CRT expressed in Xenopus laevis oocyte assessed as inhibition of [3H]chloroquine uptake at 100 uM measured from 1 to 2 hrs
T1 sequence (whole entry): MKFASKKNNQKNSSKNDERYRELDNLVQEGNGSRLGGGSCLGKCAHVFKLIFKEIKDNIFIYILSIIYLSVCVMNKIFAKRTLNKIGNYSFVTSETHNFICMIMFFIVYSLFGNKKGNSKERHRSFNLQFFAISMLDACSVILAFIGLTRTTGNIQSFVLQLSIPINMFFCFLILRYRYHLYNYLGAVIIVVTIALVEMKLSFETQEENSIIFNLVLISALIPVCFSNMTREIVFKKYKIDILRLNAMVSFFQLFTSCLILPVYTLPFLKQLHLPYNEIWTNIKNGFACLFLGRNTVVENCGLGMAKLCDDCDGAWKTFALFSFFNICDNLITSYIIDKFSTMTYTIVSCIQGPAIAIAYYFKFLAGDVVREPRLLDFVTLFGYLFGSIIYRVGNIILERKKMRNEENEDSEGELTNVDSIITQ

[2] = molecular target: T1, Chloroquine resistance transporter (Plasmodium falciparum); experiment: Inhibition of chloroquine-resistant Plasmodium falciparum Dd2 CRT expressed in Xenopus laevis oocyte assessed as inhibition of [3H]chloroquine uptake at 100 uM measured from 1 to 2 hrs
Plasmodium falciparum [3] = experiment: Antiplasmodial activity against chloroquine-sensitive Plasmodium falciparum D10 infected in human RBC after 72 hrs by parasite lactate dehydrogenase assay; type: functional, organism-based; details: D10, 72 h
Salmonella typhimurium [4] = experiment: Mutagenicity against Salmonella typhimurium TA98 assessed as revertants at 8 uM incubated for 90 mins followed by drug washout measured after 2 days relative to positive control; type: toxicity, organism-based; details: salmonella enterica subsp. enterica serovar typhimurium, 1.5 h
Plasmodium falciparum [5] = experiment: Antiplasmodial activity against chloroquine-resistant Plasmodium falciparum W2 infected in human RBC after 72 hrs by parasite lactate dehydrogenase assay; type: functional, organism-based; details: W2, 72 h
Plasmodium berghei [6] = experiment: Antimalarial activity against Plasmodium berghei ANKA expressing GFP infected in mouse assessed as cure from infection at 100 mg/kg, po administered 24 hrs post-infection measured on day 30; type: functional, organism-based; parameters: dose 100 mg/kg
Plasmodium berghei [7] = experiment: Antimalarial activity against Plasmodium berghei ANKA expressing GFP infected in mouse assessed as cure from infection at 30 mg/kg, po administered at 6,24,48 and 72 hrs post-infection measured on day 30; type: functional, organism-based; parameters: dose 30 mg/kg
Plasmodium falciparum [8] = experiment: Resistance ratio of IC50 for chloroquine-resistant Plasmodium falciparum W2 to IC50 for chloroquine-sensitive Plasmodium falciparum D10; type: functional
Plasmodium berghei [9] = experiment: Antimalarial activity against Plasmodium berghei ANKA expressing GFP infected in mouse assessed as cure from infection at 30 mg/kg, po administered 24 hrs post-infection measured on day 30; type: functional, organism-based; parameters: dose 30 mg/kg
[10] = Cytotoxicity against human HepG2 cells after 24 hrs by neutral red dye uptake assay; type: cell-based; details: read-out: TC50
Salmonella typhimurium [11] = experiment: Mutagenicity against Salmonella typhimurium TA100 assessed as revertants at 17 uM incubated for 90 mins followed by drug washout measured after 2 days relative to positive control; type: toxicity, organism-based; details: salmonella enterica subsp. enterica serovar typhimurium
Salmonella typhimurium [12] = experiment: Mutagenicity against Salmonella typhimurium TA100 assessed as revertants at 1 uM incubated for 90 mins followed by drug washout measured after 2 days relative to positive control; type: toxicity, organism-based; details: salmonella enterica subsp. enterica serovar typhimurium, 1.5 h
Salmonella typhimurium [13] = experiment: Mutagenicity against Salmonella typhimurium TA98 assessed as revertants at 2 uM incubated for 90 mins followed by drug washout measured after 2 days relative to positive control; type: toxicity, organism-based; details: salmonella enterica subsp. enterica serovar typhimurium, 1.5 h
Salmonella typhimurium [14] = experiment: Mutagenicity against Salmonella typhimurium TA100 assessed as revertants at 8 uM incubated for 90 mins followed by drug washout measured after 2 days relative to positive control; type: toxicity, organism-based; details: salmonella enterica subsp. enterica serovar typhimurium
Plasmodium falciparum [15] = experiment: Resistance ratio of IC50 for chloroquine-resistant Plasmodium falciparum K1 to IC50 for chloroquine-sensitive Plasmodium falciparum NF54; type: functional
Plasmodium berghei [16] = experiment: Antimalarial activity against Plasmodium berghei ANKA expressing GFP infected in mouse assessed as mean survival days at 50 mg/kg, po administered QD for 3 days (reference value: 6 to 7 days); type: functional
[17] = molecular target: Chloroquine resistance transporter (Plasmodium falciparum, UniProt Q9N623); experiment: Inhibition of chloroquine-resistant Plasmodium falciparum Dd2 CRT expressed in Xenopus laevis oocyte assessed as inhibition of [3H]chloroquine uptake measured from 1 to 2 hrs
Salmonella typhimurium [18] = experiment: Mutagenicity against Salmonella typhimurium TA98 assessed as revertants at 17 uM incubated for 90 mins followed by drug washout measured after 2 days relative to positive control; type: toxicity, organism-based; details: salmonella enterica subsp. enterica serovar typhimurium
Plasmodium falciparum [19] = experiment: Antiplasmodial activity against chloroquine-resistant Plasmodium falciparum K1 infected in human erythrocytes assessed as inhibition of [3H]hypoxanthine incorporation incubated for 48 hrs prior to [3H]hypoxanthine addition measured after 48 hrs by liquid scintillation counting; type: functional, organism-based
Salmonella typhimurium [20] = experiment: Mutagenicity against Salmonella typhimurium TA98 assessed as revertants at 1 uM incubated for 90 mins followed by drug washout measured after 2 days relative to positive control; type: toxicity, organism-based; details: salmonella enterica subsp. enterica serovar typhimurium
Plasmodium berghei [21] = experiment: Antimalarial activity against Plasmodium berghei ANKA expressing GFP infected in mouse assessed as reduction in parasitemia at 30 mg/kg, po administered at 6,24,48 and 72 hrs post-infection measured 24 hrs post-final dosing by flow cytometric analysis; type: functional; parameters: scale not given: the % may be the effect or the level left
Salmonella typhimurium [22] = experiment: Mutagenicity against Salmonella typhimurium TA100 assessed as revertants at 3 uM incubated for 90 mins followed by drug washout measured after 2 days relative to positive control; type: toxicity, organism-based; details: salmonella enterica subsp. enterica serovar typhimurium, 1.5 h
[23] = Cytotoxicity against mouse NIH3T3 cells after 24 hrs by neutral red dye uptake assay; type: cell-based; details: read-out: TC50
Plasmodium berghei [24] = experiment: Antimalarial activity against Plasmodium berghei ANKA expressing GFP infected in mouse assessed as cure from infection at 30 mg/kg, po administered QD for 3 days measured on day 30; type: functional, organism-based; parameters: dose 30 mg/kg
Salmonella typhimurium [25] = experiment: Mutagenicity against Salmonella typhimurium TA98 assessed as revertants at 34 uM incubated for 90 mins followed by drug washout measured after 2 days relative to positive control; type: toxicity, organism-based; details: salmonella enterica subsp. enterica serovar typhimurium, 1.5 h
Plasmodium falciparum [26] = experiment: Antiplasmodial activity against chloroquine-sensitive Plasmodium falciparum NF54 infected in human erythrocytes assessed as inhibition of [3H]hypoxanthine incorporation incubated for 48 hrs prior to [3H]hypoxanthine addition measured after 48 hrs by liquid scintillation counting; type: functional, organism-based
Salmonella typhimurium [27] = experiment: Mutagenicity against Salmonella typhimurium TA100 assessed as revertants at 34 uM incubated for 90 mins followed by drug washout measured after 2 days relative to positive control; type: toxicity, organism-based; details: salmonella enterica subsp. enterica serovar typhimurium
Salmonella typhimurium [28] = experiment: Mutagenicity against Salmonella typhimurium TA100 assessed as revertants at 1.5 uM incubated for 90 mins followed by drug washout measured after 2 days relative to positive control; type: toxicity, organism-based; details: salmonella enterica subsp. enterica serovar typhimurium, 1.5 h
Salmonella typhimurium [29] = experiment: Mutagenicity against Salmonella typhimurium TA98 assessed as revertants at 4 uM incubated for 90 mins followed by drug washout measured after 2 days relative to positive control; type: toxicity, organism-based; details: salmonella enterica subsp. enterica serovar typhimurium
Plasmodium berghei [30] = experiment: Antimalarial activity against Plasmodium berghei ANKA expressing GFP infected in mouse assessed as reduction in parasitemia at 30 mg/kg, po administered QD for 3 days measured 24 hrs post-final dosing by flow cytometric analysis; type: functional; parameters: scale not given: the % may be the effect or the level left
Plasmodium berghei [31] = experiment: Antimalarial activity against Plasmodium berghei ANKA expressing GFP infected in mouse assessed as reduction in parasitemia at 50 mg/kg, po administered QD for 3 days measured 24 hrs post-final dosing by flow cytometric analysis; type: functional; parameters: scale not given: the % may be the effect or the level left
Plasmodium berghei [32] = experiment: Antimalarial activity against Plasmodium berghei ANKA expressing GFP infected in mouse assessed as mean survival days at 30 mg/kg, po administered 24 hrs post-infection (reference value: 6 to 7 days); type: functional
Plasmodium berghei [33] = experiment: Antimalarial activity against Plasmodium berghei ANKA expressing GFP infected in mouse assessed as mean survival days at 30 mg/kg, po administered QD for 3 days (reference value: 6 to 7 days); type: functional
Plasmodium berghei [34] = experiment: Antimalarial activity against Plasmodium berghei ANKA expressing GFP infected in mouse assessed as cure from infection at 50 mg/kg, po administered QD for 3 days measured on day 30; type: functional, organism-based; parameters: dose 50 mg/kg
Plasmodium berghei [35] = experiment: Antimalarial activity against Plasmodium berghei ANKA expressing GFP infected in mouse assessed as mean survival days at 100 mg/kg, po administered 24 hrs post-infection (reference value: 6 to 7 days); type: functional
Plasmodium berghei [36] = experiment: Antimalarial activity against Plasmodium berghei ANKA expressing GFP infected in mouse assessed as reduction in parasitemia at 30 mg/kg, po administered 24 hrs post-infection measured 48 hrs post-dosing by flow cytometric analysis; type: functional; parameters: scale not given: the % may be the effect or the level left
Plasmodium berghei [37] = experiment: Antimalarial activity against Plasmodium berghei ANKA expressing GFP infected in mouse assessed as mean survival days at 30 mg/kg, po administered at 6,[…],[…] and 72 hrs post-infection (reference value: 6 to 7 days); type: functional
Plasmodium berghei [38] = experiment: Antimalarial activity against Plasmodium berghei ANKA expressing GFP infected in mouse assessed as reduction in parasitemia at 100 mg/kg, po administered 24 hrs post-infection measured 48 hrs post-dosing by flow cytometric analysis; type: functional; parameters: scale not given: the % may be the effect or the level left

Structure (SMILES): Clc1cccc(C(Nc2ccnc3cc(Cl)ccc23)c2ccc(CN3CCNCC3)cc2)c1 (racemic)
- inhibition [1]: inactive
- inhibition [2]: Active
- IC50 (Plasmodium falciparum [3]): 25 nM
- Activity (Salmonella typhimurium [4]): 16%
- IC50 (Plasmodium falciparum [5]): 33 nM
- Activity (Plasmodium berghei [6]): Active
- Activity (Plasmodium berghei [7]): Active
- Ratio IC50 (Plasmodium falciparum [8]): 1.4
- Activity (Plasmodium berghei [9]): inactive
- CC50 at 24 h [10]: < 4000 nM
- Activity (Salmonella typhimurium [11]): 7%
- Activity (Salmonella typhimurium [12]): 6%
- Activity (Salmonella typhimurium [13]): 7%
- Activity (Salmonella typhimurium [14]): 5%
- Ratio IC50 (Plasmodium falciparum [15]): 1.2
- MSD (Plasmodium berghei [16]): 30 days
- IC50 [17]: 10500 nM
- Activity (Salmonella typhimurium [18]): 11%
- IC50 (Plasmodium falciparum [19]): 23 nM
- Activity (Salmonella typhimurium [20]): 9%
- Activity (Plasmodium berghei [21]): 99.9%
- Activity (Salmonella typhimurium [22]): 3%
- CC50 at 24 h [23]: 16000 nM
- Activity (Plasmodium berghei [24]): Active
- Activity (Salmonella typhimurium [25]): 4%
- IC50 (Plasmodium falciparum [26]): 19 nM
- Activity (Salmonella typhimurium [27]): 2%
- Activity (Salmonella typhimurium [28]): 5%
- Activity (Salmonella typhimurium [29]): 4%
- Activity (Plasmodium berghei [30]): 99.8%
- Activity (Plasmodium berghei [31]): 99.8%
- MSD (Plasmodium berghei [32]): 24 days
- MSD (Plasmodium berghei [33]): 30 days
- Activity (Plasmodium berghei [34]): inactive
- MSD (Plasmodium berghei [35]): 29.6 days
- Activity (Plasmodium berghei [36]): 99.7%
- MSD (Plasmodium berghei [37]): 30 days
- Activity (Plasmodium berghei [38]): 99.6%
